Test results taken from patent US4081533A, “Method of reducing mammalian fertility and drugs therefor” (Regents of the University of California, priority 1976, dated 1978).
“Also recorded” adds a separate entry of the source. Where a name gives a salt, the structure may show the parent alone. Read-outs that look alike come from different tables or passages of the source. Positions of bridges follow the written chain, without caps; N, C: chain ends. Residues, ends and D or L forms follow the SMILES beside them.

What was measured:
[1] = test system: preovulatory surge of LH; assay: Pre-ovulatory LH surge in proestrus rats (hourly blood samples, radioimmunoassay); format: in vivo, rat; conditions: for LH surge and ovulation inhibitory effect (in words): administered prior to ovulation, rats
Procedure: (§1) These subjects were administered various dosages of the peptides of the invention as well as control materials, i.e., saline solution alone, and the naturally occuring peptides, vasopressin and oxytocin, that are related to the cyclic nonapeptide, 8-arginine vasotocin. Both vasopressin and oxytocin are well documented in the literature. Vasopressin is very closely related to 8-arginine vastocin, and has the cyclic nonapeptide structure: [drawing 2] wherein the 3rd amino acid moiety is phenylalanine rather than isoleucine that occurs in the 8-arginine vasotocin. In all other respects the vasopressin peptide chain is identical to 8-arginine vasotocin. Vasopressin is found in the posterior lobe of the pituitary gland.
(§2) More specifically, in normal cycling female rats there is a dramatic surge in the level of luteinizing hormone (LH) in the blood on the afternoon of proestrus. This surge of LH can be detected by monitoring periodic blood samples. These samples are secured by inserting a cannula into the right atrium of the heart. 50 microliters of blood are withdrawn each hour for some 6 to 7 samples. The levels of LH therein is determined using radioimmunossay techniques. Under normal circumstances, ovulation occurs about 12 hours later. The oviducts are then removed and the ova are recovered therefrom by inserting a hypodermic into the tubal ostium and flushing with phosphate-buffered saline. Freed ova are collected in a micropipette and counted. In the tests, the normal cycling rats were administered both control saline, and various dosages of 8-arginine vasotocin, prolyl-arginyl-glycinamide, prolyl-lysyl-glycinamide, vasopressin and oxytocin.
(§3) In every instance, the peptide dosage was administered in saline via heart cannula at one hour intervals over a 4 hour period.

[2] = test system: ovulation; assay: Ovulation in proestrus rats (ova flushed from oviducts and counted); format: in vivo, rat
Procedure: as §1, §2, §3

[3] = test system: Pre-Ovulatory Surge of Prolactin; assay: Pre-ovulatory surge of prolactin in rats; format: in vivo, rat; conditions: for Inhibitory effect on prolactin surge (in words): summary of Table II
Procedure: 8-arginine vasotocin, vasopressin, and oxytocin were administered at various dosage levels and rates to a number of rats. Saline solution was utilized as a control.

[4] = rat, in vivo
Description: The level of nonapeptide or tripeptide in the body fluids necessary to inhibit the LH surge and subsequent ovulation will vary from species to species and from individual to individual. In this regard, however, the nonapeptide does appear to have at least 50-100 times the activity, on a weight basis, of the tripeptide. Therefore, effective dosage levels of the tripeptides are necessarily higher than the nonapeptides, by as much as two or three orders of magnitude. On the other hand, the tripeptide, being a much simpler molecular, is more easily metabolized, and the higher dosage requirements are easily tolerated and produce no side effects. […] A technique similar to that disclosed herein for the synthesis of the tripeptide may be utilized; although it will be recognized that the production of a nine membered peptide will be considerably more costly and time consuming that the production of the tripeptide. But such synthesis techniques are available to secure the 8-arginine vasotocin utilized in the present invention.

[5] = reason given for unsuitability in the method; cited from earlier work
[6] = dihydrochloride form, dosage 1 μg, same conditions as Table I
[7] = proestrus rats, dosage 0.1 μg in saline via heart cannula at one hour intervals over a 4 hour period, acetate salt
[8] = proestrus rats, dosage 1.0 μg in saline via heart cannula at one hour intervals over a 4 hour period, acetate salt
[9] = dosage 1μg/120 min, total dose 2 μg
[10] = dosage 1μ/30 min, total dose 7 μg
[11] = proestrus rats, dosage 5.0 μg in saline via heart cannula at one hour intervals over a 4 hour period, acetate salt
[12] = proestrus rats, dosage 0.6 mg in saline via heart cannula at one hour intervals over a 4 hour period, acetate salt

SMILES	LH surge and ovulation inhibitory effect (in words) [1]	Presence of LH Surges (%) [1, 7] [%]	Presence of LH Surges (%) [1, 8] [%]	Presence of Ova (%) [2, 7] [%]	Presence of Ova (%) [2, 8] [%]	Presence of Prolactin Surge (%) [3, 9] [%]	Presence of Prolactin Surge (%) [3, 10] [%]	Inhibitory effect on prolactin surge (in words) [3]	Presence of LH Surges (%) [1, 12] [%]	Presence of Ova (%) [2, 12] [%]	also measured
CC[C@H](C)[C@@H]1NC(=O)[C@H](Cc2ccc(O)cc2)NC(=O)[C@@H](N)CSSC[C@@H](C(=O)N2CCC[C@H]2C(=O)N[C@@H](CCCNC(=N)N)C(=O)NCC(N)=O)NC(=O)[C@H](CC(N)=O)NC(=O)[C@H](CCC(N)=O)NC1=O [8-arginine vasotocin-dihydrochloride] (H-CYIQNCPRG-NH2; disulfide 1-6)											Presence of LH Surges (%) [1, 6]: 0%; Presence of Ova (%) [2, 6]: 20%
CC[C@H](C)[C@@H]1NC(=O)[C@H](Cc2ccc(O)cc2)NC(=O)[C@@H](N)CSSC[C@@H](C(=O)N2CCC[C@H]2C(=O)N[C@@H](CCCNC(=N)N)C(=O)NCC(N)=O)NC(=O)[C@H](CC(N)=O)NC(=O)[C@H](CCC(N)=O)NC1=O [8-arginine-Vasotocin, 8-arginine vasotocin] (H-CYIQNCPRG-NH2; disulfide 1-6)	effectively blocked	34	5	45	22	0	4	high inhibitory effect			Effect on basal levels of luteinizing hormone in the blood ([1]; basal LH, not the surge): does not appear to suppress the basal levels; Activity of the nonapeptide relative to the tripeptide ([1]; on a weight basis): 50-100 times; Presence of Prolactin Surge (%) ([3]; dosage 1μg/240 min, total dose 5 μg): 80%; Presence of Prolactin Surge (%) ([3]; dosage 1μ/60 min, total dose 4 μg): 14%
CC[C@H](C)[C@@H]1NC(=O)[C@H](Cc2ccc(O)cc2)NC(=O)[C@@H](N)CSSC[C@@H](C(=O)N2CCC[C@H]2C(=O)N[C@@H](CC(C)C)C(=O)NCC(N)=O)NC(=O)[C@H](CC(N)=O)NC(=O)[C@H](CCC(N)=O)NC1=O [Oxytocin, reference compound]	essentially inactive		100		100	84	60	the lowest effect			Presence of LH Surges (%) [1, 11]: 94%; Presence of Ova (%) [2, 11]: 94%
N=C(N)NCCC[C@H](NC(=O)[C@@H]1CCCN1)C(=O)NCC(N)=O [Prolyl-arginyl-glycinamide, prolyl-arginyl-glycinamide] (H-Pro-Arg-Gly-NH2)	exhibits a similar luteinizing hormone suppressing effect that also inhibits ovulation; also recorded: high inhibition of the LH surge and ovulation								25	42	Side effects [4]: no noticable side effects
NCCCC[C@H](NC(=O)[C@@H]1CCCN1)C(=O)NCC(N)=O [Prolyl-lysyl-glycinamide, prolyl-lysyl-glycinamide] (H-Pro-Lys-Gly-NH2)									15	30	LH surge and ovulation inhibitory effect (in words) ([1]; listed as Prolyl-Lysyl-Glycinamide): exhibits luteinizing hormone suppressing and anovulatory properties; LH surge and ovulation inhibitory effect (in words) ([1]; listed as prolyl-lysyl-glycinamide): high inhibition of the LH surge and ovulation
NC(=O)CC[C@@H]1NC(=O)[C@H](Cc2ccccc2)NC(=O)[C@H](Cc2ccc(O)cc2)NC(=O)[C@@H](N)CSSC[C@@H](C(=O)N2CCC[C@H]2C(=O)N[C@@H](CCCN=C(N)N)C(=O)NCC(N)=O)NC(=O)[C@H](CC(N)=O)NC1=O [Vasopressin, reference compound]	considerable activity	94	37	94	62	57	17	a lesser effect			Side effects [5]: severe vasocontrictive side effects
